Measurements published in patent US10669290B2, “Beta-lactamase inhibitors” (priority 2012, dated 2020).
Like-named read-outs stand apart in the source and are kept apart here.

Columns and labels:
[1] = system: S. aureus MSSA-7 PC-1; assay: Broth microdilution MIC, S. aureus MSSA-7; assay type: cell-based; settings: Staphylococcus aureus, fixed piperacillin 4 μg/mL, CAMHB, 16-20 hours 37° C., read-out: MIC of exemplary compounds in presence of fixed β-lactams, Fixed Pip, S. aureus MSSA-7 PC-1
[2] = system: E. cl 144200 p99 AmpC; assay: Broth microdilution MIC, E. cloacae 144200; assay type: cell-based; settings: fixed ceftazidime 4 μg/mL, CAMHB, 16-20 hours 37° C.; for MIC: Enterobacter cloacae, read-out: MIC of exemplary compounds in presence of fixed β-lactams, Fixed CAZ, E. cl 144200 p99 AmpC
Method in brief: (§1)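 CAMHB; compound 32–0.25 μg/mL, 2-fold dilutions; β-lactam partner static at 4 μg/ml; CLSI inoculum from 3-5 h culture; 16-20 h, 37° C; visual MIC.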

[3] = system: E. coli ESBL4 CTX-M-15; assay: Broth microdilution MIC, E. coli ESBL4; assay type: cell-based; settings: fixed ceftazidime 4 μg/mL, CAMHB, 16-20 hours 37° C.; for MIC: Escherichia coli, ESBL4CTXM15, read-out: MIC of exemplary compounds in presence of fixed β-lactams, Fixed CAZ, E. coli ESBL4 CTX-M-15
Method in brief: as §1

[4] = target: T1, p99 AmpC (Enterobacter cloacae, UniProt P05364); assay: β-Lactamase inhibition, p99 AmpC (nitrocefin substrate); assay type: biochemical
T1 construct: made in house; host or cells: E. coli BL21 (DE3)
Protocol: (§2) For SHV-5, Kpc-2, p99AmpC and OXA-1 β-lactamases, E. coli BL21 (DE3) bacterial cells carrying expression plasmids (expressed as native untagged proteins) for the individual β-lactamases were grown in 1 L of Superbroth (Teknova Inc. Hollister, Calif.) supplemented with 100 μg/ml kanamycin selection and 1×5052 (0.5% glycerol, 0.05% glucose and 0.2% α-lactose) at 35° C. for 18-20 hours. Cells were harvested by centrifugation (4,000×g, 4° C., 20 min), resuspended in 50 ml of 10 mM HEPES pH 7.5 ( 1/20 of the initial volume). The cells were lysed by sonication (5 pulses of 45 seconds) at 45 W on ice. The lysates were clarified by centrifugation at 10,000×g for 40 minutes at 4° C. Samples were diluted 5-fold in 50 mM sodium acetate pH 5.0, stored overnight at 4° C., after which they were centrifuged at 10,000×g for 30 minutes to clarify, and filtered through 0.45 µm filters. The samples were loaded onto a 5 ml Capto S sepharose cation exchange column (GE Healthcare) pre-equilibrated with 50 mM sodium acetate pH 5.0. The column was washed with 5 column volumes of 50 mM sodium acetate pH 5.0 to wash out unbound protein and a linear gradient of NaCl (0 to 500 mM) was used to elute the protein (over 16 CV) from the column. Fractions were assayed for β-lactamase activity using Centa (Calbiochem, Gibbstown, N.J.) or Nitrocefin (EMD Millipore chemicals, Darmstadt, Germany) as a reporter β-lactamase substrate for activity in the isolated fractions. Active fractions were pooled, concentrated and further purified by gel filtration chromatography on a Superdex 75 prep grade gel filtration column (GE Healthcare, Piscataway, N.J.) pre-equilibrated in 50 mM Hepes pH 7.5, 150 mM NaCl. Active fractions were pooled concentrated, quantitated by BCA protein determination (Thermo Scientific, Rockford, Ill.), dialyzed into PBS and frozen at −80° C. in 20% glycerol until use.
(§3) An equal volume of diluted enzyme stock was added, and the plates were incubated at 37° C. for 15 min. Nitrocefin was used as substrate for p99 AmpC, VIM-2 and OXA-1 and dispensed into each well at a final concentration of 100 μM. Absorbance at 486 nm was immediately monitored for 10 min using a Biotek Powerwave XS2 microplate spectrophotometer using the GEN5 software package (Biotek Instruments, Winooski Vt.). In an analogous fashion, imipenem was used as substrate for Kpc-2 and Cefotaxime was used for SHV-5, while changes in absorbance upon hydrolysis of the β-lactam ring were monitored at 300 nm and 260 nm respectively in UV-transparent 96-well microtiter assay plates. Maximum rates of hydrolysis were compared to those in control wells (without inhibitors), and percentages of enzyme inhibition were calculated for each concentration of inhibitor. The concentration of inhibitor needed to reduce the initial rate of hydrolysis of substrate by 50% (IC50) was calculated as the residual activity of β-lactamase at 486 nm using GraFit version 7 kinetics software package (Erithacus Software, Surrey, UK).
Using the methodology described above, examples of the current invention were evaluated for their ability to inhibit β-lactamase enzymes from all four Ambler classifications (A through D). […] NT=Not tested.

[5] = system: K.P. A-1797 KPC-2 VIM-4; assay: Broth microdilution MIC, K. pneumoniae A-1797; assay type: cell-based; settings: fixed meropenem 4 μg/mL, CAMHB, 16-20 hours 37° C.; for MIC: Klebsiella pneumoniae, read-out: MIC of exemplary compounds in presence of fixed β-lactams, Fixed Mero, K.P. A-1797 KPC-2 VIM-4
[6] = system: P. aerug. Ps296 VIM-2; assay: Broth microdilution MIC, P. aeruginosa Ps296; assay type: cell-based; settings: fixed meropenem 4 μg/mL, CAMHB, 16-20 hours 37° C.; for MIC: Pseudomonas aeruginosa, read-out: MIC of exemplary compounds in presence of fixed β-lactams, Fixed Mero, P. aerug. Ps296 VIM-2
Method in brief: as §1

[7] = system: K.P. 156319 KPC-3; assay: Broth microdilution MIC, K. pneumoniae 156319; assay type: cell-based; settings: fixed meropenem 4 μg/mL, CAMHB, 16-20 hours 37° C.; for MIC: Klebsiella pneumoniae, read-out: MIC of exemplary compounds in presence of fixed β-lactams, Fixed Mero, K.P. 156319 KPC-3
[8] = target: T2, VIM-2 (Escherichia coli, UniProt Q5U7L7); assay: β-Lactamase inhibition, VIM-2 (nitrocefin substrate); assay type: biochemical
T2 construct: made in house; host or cells: E. coli BL21 (DE3)
Protocol: as §2, with “The column was washed with 5 column volumes of 50 mM sodium acetate pH 5.0 to wash out unbound protein and a linear gradient of NaCl (0 to 500 mM) was used to elute the protein (over 16 CV) from the column. Fractions were assayed for β-lactamase activity using Centa (Calbiochem, Gibbstown, N.J.) or Nitrocefin (EMD Millipore chemicals, Darmstadt, Germany) as a reporter β-lactamase substrate for activity in the isolated fractions. Active fractions were pooled, concentrated and further purified by gel filtration chromatography on a Superdex 75 prep grade gel filtration column (GE Healthcare, Piscataway, N.J.) pre-equilibrated in 50 mM Hepes pH 7.5, 150 mM NaCl.” left out, “use. […]” for “use.”
as §3, with “Nitrocefin was used as substrate for p99 AmpC, VIM-2 and OXA-1 and dispensed into each well at a final concentration of 100 μM.” left out, “The concentration of inhibitor needed to reduce the initial rate of hydrolysis of substrate by 50% (IC50) was calculated as the residual activity of β-lactamase at 486 nm using GraFit version 7 kinetics software package (Erithacus Software, Surrey, UK).” left out

[9] = target: T3, SHV-5 (Klebsiella pneumoniae, UniProt P0A3M1); assay: β-Lactamase inhibition, SHV-5 (cefotaxime substrate); assay type: biochemical
T3 construct: made in house; host or cells: E. coli BL21 (DE3)
Protocol: as §2, with “The column was washed with 5 column volumes of 50 mM sodium acetate pH 5.0 to wash out unbound protein and a linear gradient of NaCl (0 to 500 mM) was used to elute the protein (over 16 CV) from the column. Fractions were assayed for β-lactamase activity using Centa (Calbiochem, Gibbstown, N.J.) or Nitrocefin (EMD Millipore chemicals, Darmstadt, Germany) as a reporter β-lactamase substrate for activity in the isolated fractions. Active fractions were pooled, concentrated and further purified by gel filtration chromatography on a Superdex 75 prep grade gel filtration column (GE Healthcare, Piscataway, N.J.) pre-equilibrated in 50 mM Hepes pH 7.5, 150 mM NaCl.” left out
as §3, with “Nitrocefin was used as substrate for p99 AmpC, VIM-2 and OXA-1 and dispensed into each well at a final concentration of 100 μM.” left out, “The concentration of inhibitor needed to reduce the initial rate of hydrolysis of substrate by 50% (IC50) was calculated as the residual activity of β-lactamase at 486 nm using GraFit version 7 kinetics software package (Erithacus Software, Surrey, UK).” left out

[10] = target: T4, OXA-1 (Escherichia coli, UniProt P13661); assay: β-Lactamase inhibition, OXA-1 (nitrocefin substrate); assay type: biochemical
T4 construct: made in house; host or cells: E. coli BL21 (DE3)
Protocol: as §2, with “The column was washed with 5 column volumes of 50 mM sodium acetate pH 5.0 to wash out unbound protein and a linear gradient of NaCl (0 to 500 mM) was used to elute the protein (over 16 CV) from the column. Fractions were assayed for β-lactamase activity using Centa (Calbiochem, Gibbstown, N.J.) or Nitrocefin (EMD Millipore chemicals, Darmstadt, Germany) as a reporter β-lactamase substrate for activity in the isolated fractions. Active fractions were pooled, concentrated and further purified by gel filtration chromatography on a Superdex 75 prep grade gel filtration column (GE Healthcare, Piscataway, N.J.) pre-equilibrated in 50 mM Hepes pH 7.5, 150 mM NaCl.” left out
as §3, with “Nitrocefin was used as substrate for p99 AmpC, VIM-2 and OXA-1 and dispensed into each well at a final concentration of 100 μM.” left out, “The concentration of inhibitor needed to reduce the initial rate of hydrolysis of substrate by 50% (IC50) was calculated as the residual activity of β-lactamase at 486 nm using GraFit version 7 kinetics software package (Erithacus Software, Surrey, UK).” left out

[11] = target: T5, KPC-2 (Klebsiella pneumoniae, UniProt Q9F663); assay: β-Lactamase inhibition, KPC-2 (imipenem substrate); assay type: biochemical
T5 construct: made in house; host or cells: E. coli BL21 (DE3)
Protocol: as §2, with “The column was washed with 5 column volumes of 50 mM sodium acetate pH 5.0 to wash out unbound protein and a linear gradient of NaCl (0 to 500 mM) was used to elute the protein (over 16 CV) from the column. Fractions were assayed for β-lactamase activity using Centa (Calbiochem, Gibbstown, N.J.) or Nitrocefin (EMD Millipore chemicals, Darmstadt, Germany) as a reporter β-lactamase substrate for activity in the isolated fractions. Active fractions were pooled, concentrated and further purified by gel filtration chromatography on a Superdex 75 prep grade gel filtration column (GE Healthcare, Piscataway, N.J.) pre-equilibrated in 50 mM Hepes pH 7.5, 150 mM NaCl.” left out
as §3, with “Nitrocefin was used as substrate for p99 AmpC, VIM-2 and OXA-1 and dispensed into each well at a final concentration of 100 μM.” left out, “The concentration of inhibitor needed to reduce the initial rate of hydrolysis of substrate by 50% (IC50) was calculated as the residual activity of β-lactamase at 486 nm using GraFit version 7 kinetics software package (Erithacus Software, Surrey, UK).” left out

[12] = nitrocefin 100 μM, 486 nm, 15 min preincubation 37° C., PBS pH 7.4, read-out: IC50 AmpC (Class C)

T1 sequence (P05364 21-381): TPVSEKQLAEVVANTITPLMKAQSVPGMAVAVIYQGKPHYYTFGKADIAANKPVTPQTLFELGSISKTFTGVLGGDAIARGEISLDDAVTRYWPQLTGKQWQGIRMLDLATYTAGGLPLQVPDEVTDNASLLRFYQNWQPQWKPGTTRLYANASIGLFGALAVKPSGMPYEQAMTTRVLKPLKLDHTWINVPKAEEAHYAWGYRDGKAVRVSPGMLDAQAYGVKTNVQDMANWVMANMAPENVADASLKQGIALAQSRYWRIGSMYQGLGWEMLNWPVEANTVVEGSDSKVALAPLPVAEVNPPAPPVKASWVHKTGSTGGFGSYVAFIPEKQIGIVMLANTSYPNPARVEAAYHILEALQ
T4 sequence (P13661 26-276): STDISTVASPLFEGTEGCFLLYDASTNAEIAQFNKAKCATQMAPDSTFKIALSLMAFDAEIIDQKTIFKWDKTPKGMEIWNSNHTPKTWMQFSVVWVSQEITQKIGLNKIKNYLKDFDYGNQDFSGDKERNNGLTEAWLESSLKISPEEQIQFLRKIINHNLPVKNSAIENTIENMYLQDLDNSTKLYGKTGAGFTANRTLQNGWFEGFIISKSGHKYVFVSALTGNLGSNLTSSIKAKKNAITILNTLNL
T5 sequence (Q9F663 25-293 limits assumed): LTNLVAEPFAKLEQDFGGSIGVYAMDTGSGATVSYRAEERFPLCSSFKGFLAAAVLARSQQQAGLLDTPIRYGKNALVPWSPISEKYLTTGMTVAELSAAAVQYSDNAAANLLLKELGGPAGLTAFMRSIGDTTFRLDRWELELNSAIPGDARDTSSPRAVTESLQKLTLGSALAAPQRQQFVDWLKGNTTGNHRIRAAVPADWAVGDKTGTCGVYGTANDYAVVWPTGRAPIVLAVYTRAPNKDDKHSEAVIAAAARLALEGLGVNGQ
T3 sequence (P0A3M1 22-286): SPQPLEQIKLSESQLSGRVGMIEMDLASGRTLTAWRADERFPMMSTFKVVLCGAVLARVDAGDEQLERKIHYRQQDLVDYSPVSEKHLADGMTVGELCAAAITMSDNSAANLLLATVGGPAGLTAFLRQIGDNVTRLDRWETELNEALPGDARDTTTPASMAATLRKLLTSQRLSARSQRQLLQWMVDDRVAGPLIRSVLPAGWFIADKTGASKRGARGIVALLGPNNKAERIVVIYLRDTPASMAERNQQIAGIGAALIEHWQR

| SMILES | MIC [1] | MIC [2] | MIC [3] | IC50 [4, 12] | MIC [5] | MIC [6] | MIC [7] | IC50 [8] | IC50 [9] | MIC of exemplary compounds in presence of fixed β-lactams, Fixed CAZ, E. cl 144200 p99 AmpC [2] | MIC of exemplary compounds in presence of fixed β-lactams, Fixed CAZ, E. coli ESBL4 CTX-M-15 [3] | IC50 [4] | IC50 [10] | IC50 [11] | MIC of exemplary compounds in presence of fixed β-lactams, Fixed Mero, K.P. A-1797 KPC-2 VIM-4 [5] | MIC of exemplary compounds in presence of fixed β-lactams, Fixed Mero, P. aerug. Ps296 VIM-2 [6] | MIC of exemplary compounds in presence of fixed β-lactams, Fixed Mero, K.P. 156319 KPC-3 [7] |
| --- | --- | --- | --- | --- | --- | --- | --- | --- | --- | --- | --- | --- | --- | --- | --- | --- | --- |
| N=C(N)N1CCN([C@H]2CC[C@H](CC(=O)N[C@H]3Cc4cccc(C(=O)O)c4OB3O)CC2)CC1 [Example 24, (R)-3-(2-(trans-4-(4-carbamimidoylpiperazin-1-yl)cyclohexyl)acetamido)-2-hydroxy-3,4-dihydro-2H-benzo[e][1,2]oxaborinine-8-carboxylic acid] | < 4 µg/mL | < 4 µg/mL | < 4 µg/mL | < 100 nM | < 4 µg/mL | 8 to 32 µg/mL | < 4 µg/mL | – | – | – | – | – | – | – | – | – | – |
| O=C(CC1CCC(O)CC1)N[C@H]1Cc2cccc(C(=O)O)c2OB1O (stereo partly drawn) [Example 47, (3R)-2-hydroxy-3-(2-(4-hydroxycyclohexyl)acetamido)-3,4-dihydro-2H-benzo[e][1,2]oxaborinine-8-carboxylic acid] | < 4 µg/mL | < 4 µg/mL | < 4 µg/mL | < 100 nM | > 32 µg/mL | 8 to 32 µg/mL | < 4 µg/mL | – | – | – | – | – | – | – | – | – | – |
| NC[C@@H]1CC[C@@H](CC(=O)N[C@H]2Cc3cccc(C(=O)O)c3OB2O)C[C@H]1CN (mixture of isomers) [Example 18, (3R)-3-[[2-[(1S,3S,4S)-3,4-bis(aminomethyl)cyclohexyl]acetyl]amino]-2-hydroxy-3,4-dihydro-1,2-benzoxaborinine-8-carboxylic acid and (3R)-3-[[2-[(1R,3R,4R)-3,4-bis(aminomethyl)cyclohexyl]acetyl]amino]-2-hydroxy-3,4-dihydro-1,2-benzoxaborinine-8-carboxylic acid] | – | – | – | – | – | – | – | < 100 nM | < 100 nM | C (C represents the MIC in the presence of <4 μg/mL of a β-lactamase inhibitor of exemplary compounds) | C (C represents the MIC in the presence of <4 μg/mL of a β-lactamase inhibitor of exemplary compounds) | < 100 nM | < 100 nM | < 100 nM | B (B represents the MIC in the presence of between 8 and 32 μg/mL of a β-lactamase inhibitor of exemplary compounds) | C (C represents the MIC in the presence of <4 μg/mL of a β-lactamase inhibitor of exemplary compounds) | C (C represents the MIC in the presence of <4 μg/mL of a β-lactamase inhibitor of exemplary compounds) |
| N=C(N)NC1CN(C2CCC(CC(=O)N[C@H]3Cc4cccc(C(=O)O)c4OB3O)CC2)C1 (stereo partly drawn) [Example 41, (3R)-3-(2-(4-(3-guanidinoazetidin-1-yl)cyclohexyl)acetamido)-2-hydroxy-3,4-dihydro-2H-benzo[e][1,2]oxaborinine-8-carboxylic acid] | < 4 µg/mL | < 4 µg/mL | < 4 µg/mL | < 100 nM | < 4 µg/mL | 8 to 32 µg/mL | < 4 µg/mL | – | – | – | – | – | – | – | – | – | – |
